Source: PMC10562900 (RSC Advances, 2023)

Assays:
r-e5′NT [1] = target: T1, r-e5′NT (Rattus norvegicus, UniProt P21588); experiment: CD73; assay type: biochemical; conditions: for inhibition at 100 µM: read-out: inhibition% r-e5′NT
T1 sequence (P21588 29-576): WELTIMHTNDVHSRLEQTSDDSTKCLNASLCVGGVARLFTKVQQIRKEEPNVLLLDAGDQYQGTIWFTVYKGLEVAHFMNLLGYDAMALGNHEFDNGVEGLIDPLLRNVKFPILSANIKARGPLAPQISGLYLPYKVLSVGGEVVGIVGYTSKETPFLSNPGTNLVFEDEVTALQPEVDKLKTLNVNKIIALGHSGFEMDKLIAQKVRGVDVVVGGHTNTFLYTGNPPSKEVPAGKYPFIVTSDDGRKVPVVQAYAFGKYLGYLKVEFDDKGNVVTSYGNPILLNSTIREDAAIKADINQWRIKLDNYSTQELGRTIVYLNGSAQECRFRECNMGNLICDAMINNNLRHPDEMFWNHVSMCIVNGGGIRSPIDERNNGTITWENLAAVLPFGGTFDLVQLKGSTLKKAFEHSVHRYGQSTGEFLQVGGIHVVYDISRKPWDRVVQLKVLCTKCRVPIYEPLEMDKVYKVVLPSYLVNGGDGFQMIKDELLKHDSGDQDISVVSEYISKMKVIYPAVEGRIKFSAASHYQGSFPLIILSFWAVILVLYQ

h-TNAP = target: T2, h-TNAP (Homo sapiens, UniProt P05186); experiment: h-TNAP inhibition assay; assay type: biochemical; conditions: for inhibition at 100 µM: read-out: inhibition% h-TNAP
T2 sequence (P05186 18-524): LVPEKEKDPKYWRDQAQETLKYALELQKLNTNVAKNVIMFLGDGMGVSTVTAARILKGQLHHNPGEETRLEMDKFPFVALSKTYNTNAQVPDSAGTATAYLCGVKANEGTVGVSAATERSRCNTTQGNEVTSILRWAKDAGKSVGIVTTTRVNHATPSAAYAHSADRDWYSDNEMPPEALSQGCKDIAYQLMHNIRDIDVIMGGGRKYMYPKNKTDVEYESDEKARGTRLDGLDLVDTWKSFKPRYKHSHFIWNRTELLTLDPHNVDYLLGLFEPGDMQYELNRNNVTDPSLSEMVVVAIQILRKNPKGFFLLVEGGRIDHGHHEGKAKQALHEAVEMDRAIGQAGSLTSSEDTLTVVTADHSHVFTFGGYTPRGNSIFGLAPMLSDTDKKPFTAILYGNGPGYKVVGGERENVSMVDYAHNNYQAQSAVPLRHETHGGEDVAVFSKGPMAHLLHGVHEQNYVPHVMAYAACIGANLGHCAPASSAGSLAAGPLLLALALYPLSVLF

h-e5′NT [2] = target: T3, h-e5′NT (Homo sapiens, UniProt P21589); experiment: CD73; assay type: biochemical; conditions: for inhibition at 100 µM: read-out: inhibition% h-e5′NT
T3 sequence (P21589 27-574): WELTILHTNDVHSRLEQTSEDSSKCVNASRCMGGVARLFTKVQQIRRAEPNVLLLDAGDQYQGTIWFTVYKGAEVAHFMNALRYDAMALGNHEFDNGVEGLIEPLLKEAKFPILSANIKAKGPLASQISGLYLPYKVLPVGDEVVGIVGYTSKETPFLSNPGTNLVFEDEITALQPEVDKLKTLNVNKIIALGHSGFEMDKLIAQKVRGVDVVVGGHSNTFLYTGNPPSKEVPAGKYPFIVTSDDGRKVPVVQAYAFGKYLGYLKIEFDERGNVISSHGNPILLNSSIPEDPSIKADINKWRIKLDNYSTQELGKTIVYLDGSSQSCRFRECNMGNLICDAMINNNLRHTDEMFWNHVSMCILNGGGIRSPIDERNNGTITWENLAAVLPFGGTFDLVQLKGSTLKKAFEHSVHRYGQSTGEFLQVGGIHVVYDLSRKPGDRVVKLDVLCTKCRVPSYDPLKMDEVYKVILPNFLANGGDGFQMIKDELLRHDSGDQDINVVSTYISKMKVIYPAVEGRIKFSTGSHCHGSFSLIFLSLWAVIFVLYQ

h-ENPP3 = target: T4, h-ENPP3 (Homo sapiens, UniProt O14638); experiment: h-ENPP3 inhibition assay; assay type: biochemical; conditions: for selectivity for h-ENPP3 between the two h-ENPP isozymes: h-ENPP3 versus h-ENPP1
T4 sequence (O14638 1-875): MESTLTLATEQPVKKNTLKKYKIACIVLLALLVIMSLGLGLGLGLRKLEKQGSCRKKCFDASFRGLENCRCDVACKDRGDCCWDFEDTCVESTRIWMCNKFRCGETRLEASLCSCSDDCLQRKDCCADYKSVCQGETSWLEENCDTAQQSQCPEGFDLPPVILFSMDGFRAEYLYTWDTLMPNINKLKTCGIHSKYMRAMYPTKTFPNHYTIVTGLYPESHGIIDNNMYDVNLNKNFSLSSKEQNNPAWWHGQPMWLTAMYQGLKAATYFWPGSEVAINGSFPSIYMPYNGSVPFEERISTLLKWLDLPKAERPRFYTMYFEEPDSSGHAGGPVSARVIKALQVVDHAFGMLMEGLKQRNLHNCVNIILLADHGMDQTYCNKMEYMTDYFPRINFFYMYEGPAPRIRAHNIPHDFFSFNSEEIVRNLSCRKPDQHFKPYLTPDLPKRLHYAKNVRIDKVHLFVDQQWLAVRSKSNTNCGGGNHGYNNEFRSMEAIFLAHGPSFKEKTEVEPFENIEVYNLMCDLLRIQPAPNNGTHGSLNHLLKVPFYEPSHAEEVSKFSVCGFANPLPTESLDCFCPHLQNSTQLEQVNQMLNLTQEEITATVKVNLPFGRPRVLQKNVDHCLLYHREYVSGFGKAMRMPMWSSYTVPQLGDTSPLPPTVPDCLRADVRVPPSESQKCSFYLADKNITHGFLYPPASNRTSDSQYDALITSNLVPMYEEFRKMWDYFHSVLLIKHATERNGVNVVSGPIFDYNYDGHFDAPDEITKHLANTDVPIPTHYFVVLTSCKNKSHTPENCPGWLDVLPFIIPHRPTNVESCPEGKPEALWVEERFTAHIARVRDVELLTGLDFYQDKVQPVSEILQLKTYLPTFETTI

h-ENPP1 = target: T5, h-ENPP1 (Homo sapiens, UniProt P22413); experiment: h-ENPP1 inhibition assay; assay type: biochemical; conditions: read-out: inhibition% h-ENPP1
T5 sequence (P22413 1-925): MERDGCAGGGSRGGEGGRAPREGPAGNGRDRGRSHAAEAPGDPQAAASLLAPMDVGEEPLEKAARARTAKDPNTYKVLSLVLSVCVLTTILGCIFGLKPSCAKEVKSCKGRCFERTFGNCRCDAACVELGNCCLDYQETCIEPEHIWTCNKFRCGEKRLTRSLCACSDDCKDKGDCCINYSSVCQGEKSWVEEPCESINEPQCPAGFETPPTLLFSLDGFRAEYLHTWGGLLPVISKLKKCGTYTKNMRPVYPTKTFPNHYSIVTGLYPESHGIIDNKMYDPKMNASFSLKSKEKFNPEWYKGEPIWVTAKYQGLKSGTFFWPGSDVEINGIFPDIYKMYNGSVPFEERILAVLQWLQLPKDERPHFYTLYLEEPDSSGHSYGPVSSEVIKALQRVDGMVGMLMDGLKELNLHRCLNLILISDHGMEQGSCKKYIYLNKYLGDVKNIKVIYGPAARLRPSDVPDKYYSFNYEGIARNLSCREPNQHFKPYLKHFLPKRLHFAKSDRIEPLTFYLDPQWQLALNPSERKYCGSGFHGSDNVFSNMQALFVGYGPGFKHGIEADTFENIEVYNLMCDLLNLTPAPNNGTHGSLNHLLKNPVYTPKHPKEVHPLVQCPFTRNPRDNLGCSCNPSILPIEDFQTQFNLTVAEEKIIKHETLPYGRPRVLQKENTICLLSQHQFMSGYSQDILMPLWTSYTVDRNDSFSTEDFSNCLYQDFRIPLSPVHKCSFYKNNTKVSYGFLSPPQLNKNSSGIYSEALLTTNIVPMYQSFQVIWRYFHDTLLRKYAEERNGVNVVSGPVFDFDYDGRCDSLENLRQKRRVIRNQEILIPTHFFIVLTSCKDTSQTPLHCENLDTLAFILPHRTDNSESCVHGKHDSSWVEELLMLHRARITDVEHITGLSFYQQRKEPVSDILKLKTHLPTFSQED

MCF-7 = conditions: read-out: IC50 (cell viability); cited from earlier work
r-e5′NT [3] = target: T1, r-e5′NT; experiment: Enzyme kinetic studies, r-e5′NT; assay type: biochemical; conditions: Lineweaver–Burk
h-e5′NT [4] = target: T3, h-e5′NT; experiment: Enzyme kinetic studies, h-e5′NT; assay type: biochemical; conditions: Lineweaver–Burk

Work on O=C(Cc1c[nH]c2ccccc12)Nc1ccccc1OS(=O)(=O)c1ccc(Br)cc1 [5f, 2-(2-(1H-indol-3-yl)acetamido)phenyl 4-bromobenzenesulfonate] yielded an IC50 (r-e5′NT [1]) of 1640 ± 20 nM, an IC50 (h-TNAP) of 6580 ± 250 nM and an IC50 (h-e5′NT [2]) of 690 ± 1 nM.

Cc1ccc(S(=O)(=O)Oc2ccccc2NC(=O)Cc2c[nH]c3ccccc23)cc1Cl [5g, 2-(2-(1H-indol-3-yl)acetamido)phenyl 3-chloro-4-methylbenzenesulfonate] showed an IC50 (r-e5′NT [1]) of 1850 ± 110 nM, an IC50 (h-TNAP) of 590 ± 80 nM and an IC50 (h-e5′NT [2]) of 4410 ± 190 nM.

Compound O=C(Cc1c[nH]c2ccccc12)Nc1ccccc1OS(=O)(=O)c1cccs1 [5n, 2-(2-(1H-indol-3-yl)acetamido)phenyl thiophene-2-sulfonate] has an inhibition at 100 µM (r-e5′NT [1]) of 46.6%, an inhibition at 100 µM (h-TNAP) of 28.9% and an IC50 (h-ENPP3) of 2550 ± 70 nM. For the same compound, the “selectivity for h-ENPP3 between the two h-ENPP isozymes” value (h-ENPP3) was “more effective and selective for h-ENPP3”, the inhibition at 100 µM (h-ENPP1) was 38% and the inhibition at 100 µM (h-e5′NT [2]) was 44.7%.

With O=C(Cc1c[nH]c2ccccc12)Nc1ccccc1OS(=O)(=O)c1cccc2cccnc12 [5m, 2-(2-(1H-indol-3-yl)acetamido)phenyl quinoline-8-sulfonate] the inhibition at 100 µM (r-e5′NT [1]) was 30%, the IC50 (h-TNAP) was 1300 ± 380 nM and the IC50 (h-e5′NT [2]) was 6530 ± 670 nM.

O=C(Cc1c[nH]c2ccccc12)Nc1ccccc1OS(=O)(=O)c1ccc(-c2ccccc2)cc1 [5e, 2-(2-(1H-indol-3-yl)acetamido)phenyl [1,1′-biphenyl]-4-sulfonate] showed an IC50 (r-e5′NT [1]) of 980 ± 20 nM, an IC50 (h-TNAP) of 1060 ± 30 nM and an IC50 (h-e5′NT [2]) of 560 ± 16 nM.

For COc1ccc(OS(=O)(=O)c2ccc(C)cc2)cc1 [p-methoxyphenyl p-toluenesulfonate], the IC50 (MCF-7) is given as 126000 nM.

For O=C(Cc1c[nH]c2ccccc12)Nc1ccccc1OS(=O)(=O)c1ccc(I)cc1 [5i, 2-(2-(1H-indol-3-yl)acetamido)phenyl 4-iodobenzenesulfonate], the IC50 (r-e5′NT [1]) was 810 ± 50 nM, the IC50 (h-TNAP) was 2270 ± 240 nM and the “Mode of inhibition r-e5′NT” value (r-e5′NT [3]) was “competitive”. The IC50 (h-e5′NT [2]) was 4850 ± 550 nM.

In the case of CC(C)S(=O)(=O)Oc1ccccc1NC(=O)Cc1c[nH]c2ccccc12 [5k, 2-(2-(1H-indol-3-yl)acetamido)phenyl propane-2-sulfonate], the inhibition at 100 µM (r-e5′NT [1]) is reported as 28.6%, the inhibition at 100 µM (h-TNAP) is reported as 31.8% and the inhibition at 100 µM (h-e5′NT [2]) is reported as 37.5%.

For O=C(Cc1c[nH]c2ccccc12)Nc1ccccc1OS(=O)(=O)c1ccc(F)cc1 [5c, 2-(2-(1H-indol-3-yl)acetamido)phenyl 4-fluorobenzenesulfonate], the IC50 (r-e5′NT [1]) was 1660 ± 40 nM, the IC50 (h-TNAP) was 1480 ± 20 nM and the “Mode of inhibition h-e5′NT” value (h-e5′NT [4]) was “un-competitive”. It also gave an IC50 (h-e5′NT [2]) of 370 ± 30 nM.

With COc1ccc(S(=O)(=O)Oc2ccccc2NC(=O)Cc2c[nH]c3ccccc23)cc1 [5d, 2-(2-(1H-indol-3-yl)acetamido)phenyl 4-methoxy-benzenesulfonate] the IC50 (r-e5′NT [1]) was 1770 ± 120 nM, the IC50 (h-TNAP) was 5180 ± 460 nM and the IC50 (h-e5′NT [2]) was 3460 ± 120 nM.

Work on Cc1ccc(S(=O)(=O)Oc2ccccc2NC(=O)Cc2c[nH]c3ccccc23)cc1 [5o, 2-(2-(1H-indol-3-yl)acetamido)phenyl 4-methylbenzenesulfonate] yielded an IC50 (r-e5′NT [1]) of 4860 ± 40 nM, an IC50 (h-TNAP) of 3370 ± 50 nM and an IC50 (h-ENPP3) of 2670 ± 460 nM. The “selectivity for h-ENPP3 between the two h-ENPP isozymes” value (h-ENPP3) was “more effective and selective for h-ENPP3”, the inhibition at 100 µM (h-ENPP1) was 28.3% and the IC50 (h-e5′NT [2]) was 3210 ± 830 nM.

In the case of COc1cccc(OS(=O)(=O)c2ccc(C)cc2)c1 [3-methoxyphenyl p-toluenesulfonate], the IC50 (MCF-7) is listed as 89800 nM.

For O=C(Cc1c[nH]c2ccccc12)Nc1ccccc1OS(=O)(=O)C(F)(F)F [5j, 2-(2-(1H-indol-3-yl)acetamido)phenyl trifluoromethanesulfonate], the IC50 (r-e5′NT [1]) was 5120 ± 610 nM, the IC50 (h-TNAP) was 1680 ± 70 nM and the IC50 (h-e5′NT [2]) was 890 ± 40 nM.

O=C(Cc1c[nH]c2ccccc12)Nc1ccccc1OS(=O)(=O)c1ccccc1Cl [5a, 2-(2-(1H-indol-3-yl)acetamido)phenyl 2-chlorobenzenesulfonate] gave an inhibition at 100 µM (r-e5′NT [1]) of 22.7%, an IC50 (h-TNAP) of 1600 ± 110 nM and an IC50 (h-e5′NT [2]) of 1190 ± 20 nM.

With O=C(Cc1c[nH]c2ccccc12)Nc1ccccc1OS(=O)(=O)c1ccc(Cl)cc1 [5l, 2-(2-(1H-indol-3-yl)acetamido)phenyl 4-chlorobenzenesulfonate] the IC50 (r-e5′NT [1]) was 5670 ± 110 nM, the IC50 (h-TNAP) was 1690 ± 180 nM and the IC50 (h-e5′NT [2]) was 430 ± 30 nM.

O=C(Cc1c[nH]c2ccccc12)Nc1ccccc1OS(=O)(=O)Cc1ccccc1 [5b, 2-(2-(1H-indol-3-yl)acetamido)phenyl phenylmethanesulfonate] gave an inhibition at 100 µM (r-e5′NT [1]) of 38.5%, an inhibition at 100 µM (h-TNAP) of 42.4% and an IC50 (h-e5′NT [2]) of 13200 ± 3140 nM.
